In patent US20090227673A1, “Method and Composition for the Treatment of Parkinson's Disease” (priority 2006, published 2009):
Like-named read-outs stand apart in the source and are kept apart here.

Target: T1, human COMT (Homo sapiens, UniProt P21964)
T1 construct: from tissue; host or cells: human liver cytosol (preparations HL4C, HL9C, HL8C)
T1 sequence (P21964 1-221 isoform P21964-2): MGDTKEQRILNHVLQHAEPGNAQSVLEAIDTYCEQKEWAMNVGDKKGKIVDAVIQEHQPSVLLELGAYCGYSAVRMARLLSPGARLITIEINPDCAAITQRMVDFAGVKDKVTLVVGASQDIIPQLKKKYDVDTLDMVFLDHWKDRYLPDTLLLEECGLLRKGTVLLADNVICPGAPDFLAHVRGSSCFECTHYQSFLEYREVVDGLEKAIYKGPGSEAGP
Assay: Inhibition of human liver COMT-mediated o-methylation of catecholamines (human liver cytosol, [3H-methyl]AdoMet)
Format: biochemical

[1] = 10 μM catecholamine substrate, 250 μM AdoMet, 0.25 mg/mL human liver cytosolic protein, 37° C., 10 min, pH 7.4

Row | SMILES | IC50 | IC50 [1]
1 | O=C(/C=C/c1ccc(O)c(O)c1)OCCc1ccccc1 [caffeic acid pheethyl ester, caffeic acid phenethyl ester] | 0.5 to 1 µM | 
2 | O=C(O)/C=C/c1ccc(O)c(O)c1 [caffeic acid] |  | 0.5 to 1 µM
3 | O=C(/C=C/c1ccc(O)c(O)c1)O[C@@H]1C[C@](O)(C(=O)O)C[C@@H](O)[C@H]1O [chlorogenic acid] |  | 0.5 to 1 µM
4 | Oc1cc(O)c2c(c1)O[C@H](c1ccc(O)c(O)c1)[C@H](O)C2 [epicatechin] |  | 0.5 to 1 µM
5 | O=c1c(O)c(-c2ccc(O)c(O)c2)oc2cc(O)cc(O)c12 [quercetin] |  | ~0.331 µM
